Laboratory results from patent publication US7435837B2, “Dihydrobenzofuranyl alkanamine derivatives and methods for using same” (Wyeth, priority 2003, dated 2008).

What was measured:
[1] = biological target: T1, human 5-hydroxytryptamine-2C (h5-HT2C) receptor (Homo sapiens, UniProt P28335); experiment: [125I]DOI binding to membranes of CHO cells expressing the human 5-HT2C receptor; conditions: [125I]DOI radioligand, CHO cell membranes, room temperature 60 min; read-out: 5-HT2C Affinity Ki
T1 construct: expressed in transfected cells; host or cells: CHO (Chinese Hamster Ovary) cells; membranes
T1 sequence (P28335 33-458): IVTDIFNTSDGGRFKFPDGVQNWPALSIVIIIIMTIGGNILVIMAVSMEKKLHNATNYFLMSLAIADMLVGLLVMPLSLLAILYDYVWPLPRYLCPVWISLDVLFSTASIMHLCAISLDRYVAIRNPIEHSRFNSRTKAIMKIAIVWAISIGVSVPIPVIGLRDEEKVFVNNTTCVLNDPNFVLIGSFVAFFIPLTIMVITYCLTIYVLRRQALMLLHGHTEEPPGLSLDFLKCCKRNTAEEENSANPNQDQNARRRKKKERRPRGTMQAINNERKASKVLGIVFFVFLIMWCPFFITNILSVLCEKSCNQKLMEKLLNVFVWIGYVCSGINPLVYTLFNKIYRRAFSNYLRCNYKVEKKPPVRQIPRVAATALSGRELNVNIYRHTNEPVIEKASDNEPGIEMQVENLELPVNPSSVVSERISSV

[2] = biological target: T2, human 5-HT2C receptor (Homo sapiens, UniProt P28335); experiment: 5-HT2C receptor-stimulated calcium mobilization (FLIPR) in CHO cells; type: cell-based; conditions: for Emax: CHO, percentage of the response observed with a maximally effective concentration of 5-HT, read-out: 5-HT2C Function Emax (%); for EC50: calcium mobilization, CHO cells stably expressing human 5-HT2C, read-out: 5-HT2C Function EC50;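 as to all read-outs here: Fluo-3-AM fluorescence read on FLIPR every 1 s, agonist added after 10 baseline reads, response taken as peak minus lowest raw fluorescence count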
T2 sequence (P28335 33-458): T1 sequence (P28335 33-458)

SMILES	Ki [1] [nM]	Emax [2] [%]	EC50 [2] [nM]
NCC1Cc2cccc(-c3ccsc3)c2O1 (racemic) [Example 44, (±)-1-(7-thien-3-yl-2,3-dihydro-1-benzofuran-2-yl)methanamine]	3	100	7
Cc1ccccc1-c1cccc2c1OC(CN)C2 (racemic) [Example 47, (±)-1-[7-(2-methylphenyl)-2,3-dihydro-1-benzofuran-2-yl]methanamine]	0.4	100	5.4
NCC1Cc2cccc(-c3ccccc3F)c2O1 (racemic) [Example 50, (±)-1-[7-(2-fluorophenyl)-2,3-dihydro-1-benzofuran-2-yl]methanamine]	1	100	14
NCC1Cc2cccc(-c3ccccc3C(F)(F)F)c2O1 (racemic) [Example 53, (±)-1-{7-[2-(trifluoromethyl)phenyl]-2,3-dihydro-1-benzofuran-2-yl}methanamine]	1	80	45
Cc1cccc(C)c1-c1cccc2c1OC(CN)C2 (racemic) [Example 56, (±)-1-[7-(2,6-dimethylphenyl)-2,3-dihydro-1-benzofuran-2-yl]methanamine]	1	100	60
COc1ccccc1-c1cccc2c1OC(CN)C2 (racemic) [Example 59, (±)-1-[7-(2-methoxyphenyl)-2,3-dihydro-1-benzofuran-2-yl]methanamine]	2	100	127
NCC1Cc2cccc(-c3ccccc3Cl)c2O1 (racemic) [Example 60, (±)-1-[7-(2-chlorophenyl)-2,3-dihydro-1-benzofuran-2-yl]methanamine]	0.3	100	12
CC(C)c1ccccc1-c1cccc2c1OC(CN)C2 (racemic) [Example 61, (±)-[7-(2-isopropylphenyl)-2,3-dihydro-1-benzofuran-2-yl]methylamine]	37	30	1090
NCC1Cc2cccc(-c3cccc(F)c3)c2O1 (racemic) [Example 64, (±)-1-[7-(3-fluorophenyl)-2,3-dihydro-1-benzofuran-2-yl]methanamine]	13	100	70
NCC1Cc2cccc(-c3cccc(Cl)c3)c2O1 (racemic) [Example 65, (±)-1-[7-(3-chlorophenyl)-2,3-dihydro-1-benzofuran-2-yl]methanamine]	11	100	187
COc1cccc(-c2cccc3c2OC(CN)C3)c1 (racemic) [Example 68, (±)-1-[7-(3-methoxyphenyl)-2,3-dihydro-1-benzofuran-2-yl]methanamine]	5	90	144
Cc1ccc(-c2cccc3c2OC(CN)C3)cc1 (racemic) [Example 70, (±)-1-[7-(4-methylphenyl)-2,3-dihydro-1-benzofuran-2-yl]methanamine]	2	100	22
NCC1Cc2cccc(-c3ccc(F)cc3)c2O1 (racemic) [Example 73, (±)-1-[7-(4-fluorophenyl)-2,3-dihydro-1-benzofuran-2-yl]methanamine]	5	100	41
NCC1Cc2cccc(-c3ccc(Cl)cc3)c2O1 (racemic) [Example 76, (±)-1-[7-(4-chlorophenyl)-2,3-dihydro-1-benzofuran-2-yl]methanamine]	3	90	25
COc1ccc(-c2cccc3c2OC(CN)C3)cc1 (racemic) [Example 79, (±)-1-[7-(4-methoxyphenyl)-2,3-dihydro-1-benzofuran-2-yl]methanamine]	2	95	24
NCC1Cc2cccc(-c3ccc(C(F)(F)F)cc3)c2O1 (racemic) [Example 82, (±)-1 {7-[4-(trifluoromethyl)phenyl]-2,3-dihydro-1-benzofuran-2-yl}methanamine]	15	95	275
NCC1Cc2cccc(-c3ccc(Cl)cc3Cl)c2O1 (racemic) [Example 83, (±)-1-[7-(2,4-dichlorophenyl)-2,3-dihydro-1-benzofuran-2-yl]methanamine]	1	100	7.9

SMILES	Ki [1] [nM]	Emax [2] [%]	EC50 [2] [nM]
NCC1Cc2cc(Cl)cc(-c3ccccc3Cl)c2O1 (racemic) [Example 87, (±)-1-[5-chloro-7-(2-chlorophenyl)-2,3-dihydro-1-benzofuran-2-yl]methanamine]	0.8	90	20
Cc1ccccc1-c1cc(Cl)cc2c1OC(CN)C2 (racemic) [Example 95, (±)-1-[5-chloro-7-(2-methylphenyl)-2,3-dihydro-1-benzofuran-2-yl]methanamine]	1	100	65
Cc1ccccc1-c1ccc(F)c2c1OC(CN)C2 (racemic) [Example 99, (±)-1-[4-fluoro-7-(2-methylphenyl)-2,3-dihydro-1-benzofuran-2-yl]methanamine]	21	60	838
NCC1Cc2cc(F)cc(-c3ccccc3Cl)c2O1 (racemic) [Example 100, (±)-1-[7-(2-chlorophenyl)-5-fluoro-2,3-dihydro-1-benzofuran-2-yl]methanamine]	0.2	100	120
NCC1Cc2cc(F)cc(-c3ccccc3)c2O1 (racemic) [Example 103, (±)-1-(5-fluoro-7-phenyl-2,3-dihydro-1-benzofuran-2-yl)methanamine]	7	80	996
Cc1ccccc1-c1cc(F)cc2c1OC(CN)C2 (racemic) [Example 104, (±)-1-[5-fluoro-7-(2-methylphenyl)-2,3-dihydro-1-benzofuran-2-yl]methanamine]	1	100	241
NCC1Cc2cc(F)cc(-c3ccccc3F)c2O1 (racemic) [Example 107, (±)-1-[5-fluoro-7-(2-fluorophenyl)-2,3-dihydro-1-benzofuran-2-yl]methanamine]	1	100	93
NCC1Cc2cc(F)cc(-c3ccccc3C(F)(F)F)c2O1 (racemic) [Example 108, (±)-1-{5-fluoro-7-[2-(trifluoromethyl)phenyl]-2,3-dihydro-1-benzofuran-2-yl}methanamine]	4	95	39
NCC1Cc2c(F)c(F)cc(-c3ccccc3)c2O1 (racemic) [Example 109, (±)-(4,5-difluoro-7-phenyl-2,3-dihydro-1-benzofuran-2-yl)methylamine]	25	40	3220
Cc1ccccc1-c1cc(F)c(F)c2c1OC(CN)C2 (racemic) [Example 110, (±)-1-[4,5-difluoro-7-(2-methylphenyl)-2,3-dihydro-1-benzofuran-2-yl]methanamine]	9	70	1000
NCC1Cc2c(cccc2-c2ccccc2C(F)(F)F)O1 (racemic) [Example 122, (±)-1-{4-[2-(trifluoromethyl)phenyl]-2,3-dihydro-1-benzofuran-2-yl}methanamine]	95	70	931
NCC1Cc2cccc(-c3c(F)cccc3F)c2O1 (racemic) [Example 139, (±)-1-[7-(2,6-difluorophenyl)-2,3-dihydro-1-benzofuran-2-yl]methanamine]	2.5	90	6
NCC1Cc2cccc(-c3c(Cl)cccc3Cl)c2O1 (racemic) [Example 140, (±)-1-[7-(2,6-dichlorophenyl)-2,3-dihydro-1-benzofuran-2-yl]methanamine]	0.3	90	0.72
COc1ccc(-c2cccc3c2OC(CN)C3)c(OC)c1 (racemic) [Example 143, (±)-1-[7-(2,4-dimethoxyphenyl)-2,3-dihydro-1-benzofuran-2-yl]methanamine]	6.3	90	1
NCC1Cc2cccc(-c3ccc(F)cc3F)c2O1 (racemic) [Example 146, (±)-1-[7-(2,4-difluorophenyl)-2,3-dihydro-1-benzofuran-2-yl]methanamine]	2.4	90	5
COc1cccc(-c2cccc3c2OC(CN)C3)c1OC (racemic) [Example 155, (±)-{[7-(2,3-dimethoxyphenyl)-2,3-dihydro-1-benzofuran-2-yl]methyl}amine]	9	90	43
Cc1ccc(C)c(-c2cccc3c2OC(CN)C3)c1 (racemic) [Example 161, (±)-{[7-(2,5-dimethylphenyl)-2,3-dihydro-1-benzofuran-2-yl]methyl}amine]	8	90	32
